Measurements as given in PMC7434922, “Key role of quinone in the mechanism of respiratory complex I” (Nature Communications, 2020).

Assays:
[1] = molecular target: T1, T. thermophilus complex I (quinone site, Q-site) (Thermus thermophilus, UniProt Q56218+Q56220+Q60019); assay: X-ray crystal structure; type: binding; conditions: crystal soaked overnight in 500 uM DQ, pH 6.0; Q-site (Y87_4, H38_4)
T1 construct: gene nqo4; native intact complex purified from T. thermophilus HB8 membranes in TDM; 16 subunits, 550 kDa; for crystals recombinant His-tagged Nqo16 (E. coli) was added; activity preparation has sub-stoichiometric Nqo16; with NADH-quinone oxidoreductase subunit 1; NADH-quinone oxidoreductase subunit 2; NADH-quinone oxidoreductase subunit 3; NADH-quinone oxidoreductase subunit 5; NADH-quinone oxidoreductase subunit 7; NADH-quinone oxidoreductase subunit 9; NADH-quinone oxidoreductase subunit 10; NADH-quinone oxidoreductase subunit 11; NADH-quinone oxidoreductase subunit 12; NADH-quinone oxidoreductase subunit 13; NADH-quinone oxidoreductase subunit 14; NADH-quinone oxidoreductase subunit 15; NADH-quinone oxidoreductase subunit 16

[2] = molecular target: T2, T. thermophilus complex I (NADH/FMN site, subunit Nqo1) (Thermus thermophilus, UniProt Q56222); assay: X-ray crystal structure; type: binding; conditions: resident cofactor in Nqo1; same crystal
T2 construct: same complex as P1, native from HB8 membranes; crystals with added recombinant His-tagged Nqo16; cryo-EM samples without Nqo16 (15 subunits); with NADH-quinone oxidoreductase subunit 2; NADH-quinone oxidoreductase subunit 3; NADH-quinone oxidoreductase subunit 4; NADH-quinone oxidoreductase subunit 5; NADH-quinone oxidoreductase subunit 6; NADH-quinone oxidoreductase subunit 7; NADH-quinone oxidoreductase subunit 8; NADH-quinone oxidoreductase subunit 9; NADH-quinone oxidoreductase subunit 10; NADH-quinone oxidoreductase subunit 11; NADH-quinone oxidoreductase subunit 12; NADH-quinone oxidoreductase subunit 13; NADH-quinone oxidoreductase subunit 14; NADH-quinone oxidoreductase subunit 15; NADH-quinone oxidoreductase subunit 16
T2 sequence (Q56222 1-438): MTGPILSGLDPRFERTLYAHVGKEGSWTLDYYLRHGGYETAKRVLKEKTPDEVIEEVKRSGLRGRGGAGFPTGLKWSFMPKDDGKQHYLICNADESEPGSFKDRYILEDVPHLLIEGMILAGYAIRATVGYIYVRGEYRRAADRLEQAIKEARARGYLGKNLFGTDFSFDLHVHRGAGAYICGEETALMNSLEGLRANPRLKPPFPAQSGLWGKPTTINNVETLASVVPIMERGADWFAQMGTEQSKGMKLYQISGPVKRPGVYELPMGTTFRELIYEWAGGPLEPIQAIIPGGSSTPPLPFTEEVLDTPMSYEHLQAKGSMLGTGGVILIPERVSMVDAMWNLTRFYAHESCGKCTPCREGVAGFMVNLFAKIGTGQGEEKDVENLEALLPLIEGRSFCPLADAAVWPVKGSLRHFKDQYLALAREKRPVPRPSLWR
T2 sequence (Q56221 2-181 partner): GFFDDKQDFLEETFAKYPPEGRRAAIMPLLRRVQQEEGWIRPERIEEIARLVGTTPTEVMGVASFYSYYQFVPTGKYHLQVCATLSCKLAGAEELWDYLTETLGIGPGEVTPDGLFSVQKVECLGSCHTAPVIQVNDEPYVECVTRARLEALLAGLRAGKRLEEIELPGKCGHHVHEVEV
T2 sequence (Q56223 1-783 partner): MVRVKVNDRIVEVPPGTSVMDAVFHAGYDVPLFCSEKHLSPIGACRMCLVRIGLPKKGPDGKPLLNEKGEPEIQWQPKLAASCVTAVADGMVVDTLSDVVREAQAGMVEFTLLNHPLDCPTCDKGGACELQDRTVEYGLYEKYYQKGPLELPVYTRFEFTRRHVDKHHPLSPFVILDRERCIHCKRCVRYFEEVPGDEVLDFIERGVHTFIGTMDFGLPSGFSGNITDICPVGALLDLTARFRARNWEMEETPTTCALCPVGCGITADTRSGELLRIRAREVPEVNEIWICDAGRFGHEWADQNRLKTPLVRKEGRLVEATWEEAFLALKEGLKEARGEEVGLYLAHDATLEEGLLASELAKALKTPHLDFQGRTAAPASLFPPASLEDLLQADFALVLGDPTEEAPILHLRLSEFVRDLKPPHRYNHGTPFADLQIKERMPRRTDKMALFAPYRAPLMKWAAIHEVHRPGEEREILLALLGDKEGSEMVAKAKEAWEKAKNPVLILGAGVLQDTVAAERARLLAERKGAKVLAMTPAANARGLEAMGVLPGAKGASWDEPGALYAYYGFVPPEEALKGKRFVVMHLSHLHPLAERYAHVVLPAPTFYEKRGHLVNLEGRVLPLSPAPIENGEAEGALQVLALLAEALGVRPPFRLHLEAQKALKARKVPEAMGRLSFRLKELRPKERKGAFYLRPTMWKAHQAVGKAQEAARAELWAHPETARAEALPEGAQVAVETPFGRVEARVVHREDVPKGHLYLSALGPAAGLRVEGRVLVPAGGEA

[3] = molecular target: T2, T. thermophilus complex I (NADH/FMN site, subunit Nqo1); assay: X-ray crystal structure; also cryo-EM (6ZIY); type: binding; conditions: crystal soaked 4.5 min in 20 mM NADH, 20 mM dithionite, anaerobic, pH 6.0
[4] = molecular target: T3, Complex I subunit Nqo10 (Thermus thermophilus) (T. thermophilus HB8, UniProt Q56225 1-176); assay: crystal structure; intact complex I purified from T. thermophilus mixed with purified recombinant Nqo16 (1:0.2 CXI:Nqo16), sitting drop at 23 °C, 100 mM Bis-Tris pH 6.0, 19-25% PEG 4000, 100 mM KCl, 100 mM glutaric acid, detergents; native crystals and crystals soaked or co-crystallised with NADH, decylubiquinone, piericidin A, aureothin or pyridaben; conditions: both partners purified
T3 construct: Nqo10, core subunit of the membrane domain of respiratory complex I, Thermus thermophilus HB8; Endogenous subunit inside the crystallised intact complex; source: purified from T. thermophilus HB8 cells as part of intact complex I (anion exchange, cation exchange, gel filtration)
T3 sequence (looked up): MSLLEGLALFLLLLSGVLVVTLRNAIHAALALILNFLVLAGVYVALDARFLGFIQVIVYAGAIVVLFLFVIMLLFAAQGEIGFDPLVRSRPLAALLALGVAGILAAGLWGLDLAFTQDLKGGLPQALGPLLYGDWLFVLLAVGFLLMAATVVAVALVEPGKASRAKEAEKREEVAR

[5] = molecular target: T4, Complex I antiporter-like subunit Nqo14 (Thermus thermophilus) (T. thermophilus HB8, UniProt Q56229 1-427); assay: as above; conditions: both partners purified
T4 construct: Nqo14, antiporter-like core subunit of the membrane domain of respiratory complex I, Thermus thermophilus HB8; Endogenous subunit inside the crystallised intact complex; source: purified from T. thermophilus HB8 cells as part of intact complex I (anion exchange, cation exchange, gel filtration)
T4 sequence (looked up): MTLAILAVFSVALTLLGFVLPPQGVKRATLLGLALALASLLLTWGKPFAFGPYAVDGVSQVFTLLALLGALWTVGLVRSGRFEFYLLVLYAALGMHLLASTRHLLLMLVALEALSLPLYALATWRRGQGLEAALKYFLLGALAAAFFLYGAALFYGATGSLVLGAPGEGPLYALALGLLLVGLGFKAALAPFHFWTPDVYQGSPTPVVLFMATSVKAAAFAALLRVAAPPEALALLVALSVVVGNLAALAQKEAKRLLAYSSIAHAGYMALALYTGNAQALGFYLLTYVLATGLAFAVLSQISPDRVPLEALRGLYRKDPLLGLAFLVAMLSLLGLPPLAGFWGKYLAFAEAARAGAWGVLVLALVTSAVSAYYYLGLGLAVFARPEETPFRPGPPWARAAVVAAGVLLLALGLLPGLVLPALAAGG

In the case of `CCCCCCCCCCC1=C(C)C(=O)C(OC)=C(OC)C1=O` [DQ, decylubiquinone], the X-ray crystal structure [1] is reported as “DQ interacts mainly with the residues mentioned above with its hydrocarbon chain surrounded by”.

For `Cc1cc2nc3c(=O)[nH]c(=O)nc-3n(C[C@H](O)[C@H](O)[C@H](O)COP(=O)(O)O)c2cc1C` [FMN, flavin-mononucleotide], the X-ray crystal structure [2] was “The FMN is coordinated by subunit Nqo1 at the deep end”.

For `NC(=O)C1=CN([C@@H]2O[C@H](COP(=O)(O)OP(=O)(O)OC[C@H]3O[C@@H](n4cnc5c(N)ncnc54)[C@H](O)[C@@H]3O)[C@@H](O)[C@H]2O)C=CC1` [NADH], the “X-ray crystal structure; also cryo-EM (6ZIY)” value [3] was “Our crystal structure of intact complex I with bound NADH confirms the binding mode”.

B1: Complex I subunit Nqo11 (Thermus thermophilus) (natural protein, T. thermophilus HB8, UniProt Q56226 1-95, looked up)
chain: MSYLLTSALLFALGVYGVLTRRTAILVFLSIELMLNAANLSLVGFARAYGLDGQVAALMVIAVAAAEVAVGLGLIVAIFRHRESTAVDDLSELRG
notes: Nqo11, core subunit of the membrane domain of respiratory complex I, Thermus thermophilus HB8; Endogenous subunit inside the crystallised intact complex; source: purified from T. thermophilus HB8 cells as part of intact complex I (anion exchange, cation exchange, gel filtration)
B1: binds [4]; binds [5].
